Experimental data as given in paper PMC4849654, “A High-Throughput Cell-Based Screen Identified a 2-[(E)-2-Phenylvinyl]-8-Quinolinol Core Structure That Activates p53” (PLoS ONE, 2016).
Where a SMILES comes first, the peptide text is derived from it. The star is where a group is joined. Cbz = O=C(OCc1ccccc1)*

Tests used:
[1] = tested on: proteasome trypsin-like activity; experiment: Proteasome-Glo trypsin-like activity; assay type: cell-based; conditions: C33a cells, 2 hrs, 10 μM or 30 μM
[2] = tested on: proteasome chymotrypsin-like activity; experiment: Proteasome-Glo chymotrypsin-like activity; assay type: cell-based; conditions: C33a cells, 2 hrs, 10 μM or 30 μM
[3] = tested on: p53-Luc; experiment: TE6 p53-Luc targeted degradation reporter in C33a cells; assay type: cell-based; conditions: C33a cells expressing p53-Luc and TE6
Description: Adenoviruses were generated using the RAPAd CMV adenoviral expression system (Cellbiolabs, San Diego, CA). High-throughput screening was performed at the University of Illinois High-Throughput Screening Facility. For each group, 1x 10^7 C33a cells were plated in 150 mm^2 dishes in 20 ml cDMEM. For p53xTE6 group, 1 x 10^8 GFU/mL of p53-Luc adenovirus and 1 x 10^9 GFU/mL TE6 adenovirus were plated. For RbxTE7 group, 1 x 10^8 GFU/mL of p60RbRen adenovirus and 1 x 10^9 GFU/mL of βTrCP-E7 adenovirus were added. For control group, Ad-Red was substituted for TE6 or TE7 adenovirus in the p53 control and Rb control, respectively. […] Positive hits were scored as ≥ 2-fold above vehicle treated p53-Luc wells.
For the in vitro assay, E6 was cloned into the pMAL vector in frame with the maltose binding protein. […] We measured luciferase activity after 30 minutes. For the trypsin and chymotrypsin assay, C33a cells were incubated for 2 hours with the indicated compounds at 10 μM and assessed for chymotrypsin and trypsin activity using Proteasome-Glo assay (Promega). […] After incubation, cells were lysed and luciferase activity measured and p53 levels measured by Western blot.

[4] = tested on: HeLa cells; experiment: Cell viability (Cell Titer Glo), HeLa; assay type: cell-based; conditions: for IC50: HeLa cells, 48 hrs, Cell Titer Glo
Description: (§1) For the viability assays, 20,000 C33a, HeLa, or siHA cells were plated in white 96 well flat bottom plates. The cells were treated with compounds at concentrations from 0.5 to 30 μM for 48 hrs. After incubation, Cell Titer Glo (Promega) was added to the cells and luminescence read in a Tecan II plate reader. For annexin V and PI staining, 500,000 C33a cells were treated with inhibitor for 24 hrs. The cells were stained with Annexin V-FITC and PI according to eBioscience manufacturer’s instructions and analyzed by flow cytometry.

[5] = tested on: C33a cells; experiment: Cell viability (Cell Titer Glo), C33a; assay type: cell-based; conditions: for IC50: C33a cells, 48 hrs, Cell Titer Glo
Description: as §1

[6] = molecular target: T1, p53 (Homo sapiens, UniProt P04637, R273C); experiment: Nuclear/cytoplasmic fractionation and Western analysis of p53; assay type: cell-based; conditions: C33a cells, 6 hrs, Western
T1 construct: endogenous in cells; host or cells: C33a
Description: For nuclear/cytoplasmic fractionation, 1 × 10^7 C33a cells were treated with 30 μM compound for 6 hrs. The cells were washed with PBS and lysed in 1000 μL of cytoplasmic extraction buffer (10 mM KCl, 10 mM HEPES, pH 7.9, 0.1 mM EDTA, 1 mM dithiothreitol) and incubated on ice for 20 min. 50 μL of 10% NP-40 was added to each lysate, vortexed and then centrifuged at 12,000 × g for 10 min. The cytosolic fraction was collected and the pellet containing the nuclei suspended in 50 μL of nuclear extraction buffer (0.4 M NaCl, 20 mM HEPES, pH 7.9, 1 mM EDTA). The nuclear fraction was incubated for 30 min on ice. The samples were spun at 14,000 × g for 10 min and the supernatants were collected. To concentrate the cytoplasmic fraction, 500 μL methanol, and 200 μL chloroform were added and the samples were vortexed, centrifuged for 10 min at 14,000 × g, and the upper and lower layer were discarded. The solid interphase was collected and suspended in 50 μL of lysis buffer. Equal cell equivalents were loaded on a gel and electrophoresed. For whole cell lysates, C33a cells were lysed with a modified RIPA buffer and subjected to SDS-PAGE electrophoresis. The gels were transferred to nitrocellulose and blots probed with antibodies for p53 (Santa Cruz, antibody FL-303), lamin A/C, and calnexin (Santa Cruz Biotechnology).

[7] = tested on: p53-Luc; experiment: In vitro E6 degradation assay (recombinant E6 with p53-Luc lysates); assay type: biochemical; conditions: 50 ng recombinant E6, 10 μM compound, C33a lysates, 6 hours
Description: For the in vitro assay, E6 was cloned into the pMAL vector in frame with the maltose binding protein. The E6 was expressed in bacteria and purified on amylose column. C33a cells were transfected with p53-Luc and incubated overnight. 50 ng recombinant E6 was incubated with 10 μM compound and C33a lysates for 6 hours at 30 degrees. We measured luciferase activity after 30 minutes. For the trypsin and chymotrypsin assay, C33a cells were incubated for 2 hours with the indicated compounds at 10 μM and assessed for chymotrypsin and trypsin activity using Proteasome-Glo assay (Promega). For the in vivo degradation assay, C33a cells expressing Ad-TE6 and Ad-p53 or expressing Ad-TE7 and Ad-Rb-Ren were treated for 8 hours with compounds. After incubation, cells were lysed and luciferase activity measured and p53 levels measured by Western blot.

[8] = tested on: PUMA; experiment: PUMA transcription by qRT-PCR; assay type: cell-based; conditions: 30 μM, 8h
Description: (§2) RNA from C33a and HeLa was isolated by Trizol and reverse transcribed using the first strand synthesis kit from NEB. Primers for p53, GAPDH and PUMA were used for quantitative real-time PCR (qRT-PCR). Primer sequences include: PUMA (forward primer: CTCAACGCACAGTACGAG and reverse primer: […]), FAS (forward primer: TCTGCCATAAGCCCTGT and reverse primer: GTCTGTGTACTCCTTCCCT), p21 (forward primer: […] and reverse primer: […]), and BAX (forward primer: […] and reverse primer: […]). ΔΔCt values were determined for PUMA using GAPDH to normalize data. Bio-rad SYBR green was used for the amplification and detection of the PCR products on an iCycler (Bio-rad).

[9] = molecular target: T1, p53; experiment: p53 nuclear localization by immunofluorescence; assay type: cell-based; conditions: C33a cells, 30 μM, 8 hrs
Description: C33a cells were plated into chamber slides and treated with 30 μM of compounds 3 or, 4 for 4, or 8 hours. As a control, 30 μM cisplatin was used. The cells were fixed with 2.5% formaldehyde for 30 minutes, followed by permeabilization with 0.01% Triton X100 for 30 minutes. Cells were blocked with 5% goat serum for 30 minutes and stained overnight with anti-p53 (Santa Cruz, antibody FL-303) or anti-phospho-H2A.X (cell signaling) in 1% FCS in PBS at 4°. The following day, the cells were washed with PBS and incubated for 45 minutes with anti-rabbit-FITC and DAPI in 1% FCS in PBS. The cells were washed and mounted with ProLong Gold.

[10] = tested on: siHA cells; experiment: Cell viability (Cell Titer Glo), siHA; assay type: cell-based; conditions: 48h
Description: as §1

[11] = tested on: C33a cells; experiment: Cell viability after p53 siRNA knockdown; assay type: cell-based; conditions: p53 siRNA vs scrambled, 10 μM, 48 hrs
Description: C33a cells were transfected with 100 pmol siRNA for p53 (Dharmacon, L-003329-00-0005) or AllStar control (Qiagen) using lipofectamine2000 according to manufacturer’s instructions. The cells were incubated for 24 hrs and then split and incubated with 10 μM compounds. Cell viability was measured after 48 hours by Cell Titer Glo. Efficiency of knockdown was determined by quantitative RT-PCR using SYBR green.

[12] = tested on: p21, BAX and FAS; experiment: p53 target gene expression (p21, BAX, FAS) by qRT-PCR; assay type: cell-based; conditions: HeLa cells, 8h
Description: as §2

Compound	trypsin-like proteasome activity [1]	chymotrypsin-like proteasome activity [2]	restoration of p53-Luc luciferase activity [3]	IC50 [4] [µM]	IC50 [5] [µM]	expression of p21, BAX and FAS [12]	further results
CC(C)C[C@@H](C=O)NC(=O)[C@H](CC(C)C)NC(=O)[C@H](CC(C)C)NC(=O)OCc1ccccc1 [MG132, reference compound] (Cbz-Leu-Leu-Leu-aldehyde)	significantly inhibited	significantly inhibited					
OCc1ccc(-c2ccc(-c3ccc(CO)s3)o2)s1 [RITA]			did not restore p53-Luc activity				
CC(C)C[C@H](NC(=O)[C@H](Cc1ccccc1)NC(=O)c1cnccn1)B(O)O [bortezomib]			restored p53-Luc luciferase activity				
N.N.[Cl][Pt][Cl] [cisplatin, reference compound]				4.6	24		
Cc1cccc(/C=C/c2ccc3cccc(O)c3n2)c1O [compound 3]	did not significantly reduce	did not significantly reduce		6	3.8	induced expression	nuclear accumulation of p53 in nuclear fraction compared to vehicle [6]: higher levels of nuclear accumulation of p53; cell viability at 30 μM ([4]; HeLa, 30 μM, 48h): decreased viability; restoration of p53 levels in vitro [7]: restored p53 levels in vitro to similar levels as the proteasome inhibitor MG132; cell viability at 30 μM ([5]; C33a, 30 μM, 48h): decreased viability; PUMA transcription upregulation ([8]; C33a cells): 3.92±0.27 fold; PUMA transcription upregulation ([8]; HeLa cells): 4.35±0.22 fold; p53 nuclear accumulation, % of cell nuclei [9]: 51.1±2.18 % of cell nuclei; cell viability at 30 μM [10]: decreased viability; effect of p53 gene knockdown on C33a sensitivity to compound [11]: significantly reversed
COc1cc(/C=C/c2ccc3cccc(O)c3n2)cc(Br)c1OC [compound 37]						induced expression	
